Source: US20080019916A1, “Methods and pharmaceuticals for treating muscle insulin resistance and related conditions” (University of Tasmania, priority 2001, published 2008)

Columns and labels:
anaesthetised rats = test: hyperinsulinaemic euglycaemic clamp in anaesthetised rats with 1-MX metabolism, glucose uptake and haemodynamic monitoring; type: in vivo, rat
Source text: From present knowledge there would appear to be at least three possible mechanisms to account for insulin-mediated capillary recruitment in skeletal muscle. Firstly and most likely, insulin may act at insulin receptors on endothelial cells and an IRS-1/2, PI3-K pathway to activate eNOS to produce NO, which in turn permeates adjacent vascular smooth muscle cells to activate soluble guanylyl cyclase and lower the vascular tone of pre-capillary sphincters. In favour of this mechanism is the fact that this process is NO-dependent and is thus consistent with our preliminary data (FIG. 4). There is compelling evidence that insulin acts directly through insulin receptors on endothelial cells to control nutritive capillary flow in skin. Secondly, insulin may act at insulin receptors on the vascular smooth muscle cells (22) via IRS-1/2, PI3-K, NOS, cGMP, MBP (myosin bound phosphatase) sequence to cause vasorelaxation. This mechanism would be NO-dependent, free of endothelial cell involvement in signalling and attractive as TNFα is known to inhibit insulin signalling in vascular smooth muscle cells, although to date this has been restricted to the ERK1/2 activation step (23). This mechanism would also lead ultimately to the activation of guanylyl cyclase and the production of cyclic GMP. Thirdly, insulin may act at insulin receptors on skeletal muscle to activate glucose transport and metabolism by the IRS-1/2, PI3-K, GLUT4 pathway to produce a metabolite (e.g. adenosine) that permeates adjacent tissue to react with appropriate receptors on endothelial/vascular smooth muscle cells to result in vasorelaxation. […] FIG. 4. The effect of L-NAME on insulin mediated increases in hindleg glucose uptake (FIG. 4a) and 1-MX metabolism (FIG. 4b) was examined. Euglycemic clamp conditions (10 mU/min/kg) were conducted for 2 h. […] This latter mechanism would resemble that occurring in exercise where vasodilatory metabolite(s) are released locally by working muscle to facilitate local blood flow and would be inhibited by agents (e.g. glucosamine) that inhibit muscle glucose metabolism. All three mechanisms should be wortmannin sensitive as PI3-K is expected to be involved. A variant of this third mechanism is where a form of NOS is activated in skeletal muscle independently of glucose metabolism. NO could then permeate neighbouring tissue as above. The terminal half of this fourth possible mechanism should be simulated by AMPK activation with AICAR addition (24). Overall, given that the mechanism of capillary recruitment by insulin in rat muscle is NO-dependent (FIG. 4) and that NO acts by producing cyclic GMP, agents that might enhance capillary recruitment by insulin should be targeted to enhance insulin's production of NO or cyclic GMP. In principle, 1-methylxanthine (1-MX) is an exogenous substrate for an enzyme located predominantly in the nutritive capillary endothelial cells (much less so in the non-nutritive route and myocytes). Consequently, passage of blood borne 1-MX through the nutritive vascular route leads to its conversion to the product 1-methylurate (1-MU). Chromatographic analysis of arterial and venous samples for 1-MX and 1-MU together with the total blood flow rate over the muscle bed allows the calculation of 1-MX metabolism. A number of our studies using the perfused rat hindlimb have shown tight correlation between nutritive flow (or the proportion of nutritive/non-nutritive flow) and 1-MX metabolism (12,13). Assay of new drugs acting to increase capillary recruitment in the presence of endogenous or exogenous insulin. This is done in an optional two tier manner, firstly in anaesthetized rats using the hyperinsulinaemic euglycaemic clamp (14) and secondly, in human forearm using a localized hyperinsulinaemic euglycaemic clamp (17). The initial testing in rats is optional, but allows rapid identification of those agents likely to be effective in humans. […]

[1] = test system: skeletal muscle of the rat hindlimb; test: contrast enhanced ultrasound/microbubbles (CEU) measurement of capillary blood volume in rat hindlimb muscle; type: in vivo
Source text: A second method was devised using the latest technologies in ultrasound. The ultrasound method relies on the increased echogenicity of albumin microbubbles which are continuously infused intravenously during data acquisition. The acoustic signal that is generated from the microbubbles when exposed to ultrasound produces tissue opacification which is proportional to the number of microbubbles within the ultrasound beam. Using harmonic pulsing methods essentially all microbubbles within the ultrasound beam are destroyed in response to a single pulse of high-energy ultrasound and an image is obtained. In the time interval between subsequent pulsing episodes, microbubbles flowing into the tissue are replenished within the beam and affect the intensity of the signal from the next high energy pulse. Repeating this process with pulse delays between 50 msec and 20 sec, the beam will be fully replenished and further increases in the time between each pulsing interval will not produce a change to tissue opacification. The rate of microbubble reappearance within the ultrasound beam provides an indication of capillary velocity and the degree of tissue opacification provides a measurement of capillary blood volume (CBV). Images are background-subtracted from images from a pulsing interval of 1000 ms which represents the replenishment of arteries and arterioles thus providing a measurement of capillary flow. The plateau tissue opacification (measured as videointensity) is the determination of capillary blood volume. Using this approach, changes in capillary blood volume in response to insulin and exercise have recently been assessed in the skeletal muscle of the rat hindlimb in vivo and compared to data obtained using 1-MX metabolism (ref 16; FIG. 1). FIG. 1. Comparison of the effect of saline, insulin (3 mU/min/kg, euglycemic clamp×120 min) or muscle contraction (2 Hz, 1 ms duration, monophasic square waves×10 min) on capillary blood volume as measured by microbubble videointensity using contrast enhanced ultrasound (FIG. 1a) or the hindlimb extraction of 1-MX (FIG. 1b) measured under identical conditions. […] Exercise is regarded by most physiologists as a “bench-mark” stimulus for capillary recruitment. […] A particular advantage of the ultrasound method is that it is relatively non-invasive and is suitable for human use (17). This opens up possibilities for its use in diagnosis in terms of impaired capillary recruitment in response to insulin and the monitoring of outcomes from therapeutic interventions that might act by increasing capillary recruitment. The ultrasound method relies on the increased echogenicity of albumin microbubbles that are continuously infused intravenously during data acquisition. […]

[2] = test system: skeletal muscle of the rat hindlimb; details: physiologic doses of insulin (3 mU/min/kg clamp); cited from earlier work
[3] = insulin 3 mU/min/kg, anesthetized rat, before vs after, FIG. 7c
[4] = infused with sub-maximal physiologic dose of insulin, vs insulin alone, FIG. 5b

Which “effect on insulin-mediated capillary recruitment” value (anaesthetised rats; rats treated with the cytokine in vivo) does the source give for TNFα here?
Its value is “completely block”.

Which “capillary recruitment as indicated by CEU (capillary blood volume)” value ([1]; infused alone, without insulin, FIG. 6a) does the source give for `NC(=O)c1ncn([C@@H]2O[C@H](CO)[C@@H](O)[C@H]2O)c1N` [AICAR, 5-aminoimidazole-4-carboxamide-1-β-D-ribofuranoside] here?
The value was “recruited capillary flow on its own”.

What about the “insulin-mediated hindleg glucose uptake” value (anaesthetised rats; infused with insulin, vs insulin alone, P<0.05, FIG. 6b) of the same compound?
Its value is “markedly enhanced”.

What does the source list for `COC(=O)[C@@H](N)CCCNC(=N)N[N+](=O)[O-]` [L-NAME]?
insulin-mediated increase in femoral blood flow (FBF) (anaesthetised rats; euglycemic clamp 10 mU/min/kg, 2 h, n=5): blocked the increase in FBF; mean arterial blood pressure (anaesthetised rats; euglycemic clamp 10 mU/min/kg, 2 h, n=5, raised from 100±4): 125±5 mmHg

Which “increase in capillary blood volume” value [2] does the source give for “insulin: hormone infused in euglycemic clamp” here?
Its value is 2-3 fold.

What about the “capillary blood volume (microbubble videointensity, CEU)” value ([1]; euglycemic insulin clamp 3 mU/min/kg, 120 min, vs baseline/saline, FIG. 1a) of the same compound?
Its value is “marked increases”.

And the “plateau videointensity (A), microvascular volume” value [1, 3]?
Its value is “clearly higher”.

And the “rate of microvascular filling (β)” value [1, 3]?
Its value is “no change”.

What does the source list for `CCCOc1ccccc1-c1nc(=O)c2[nH]nnc2[nH]1` [Zaprinast, 1,4-dihydro-5-(2-propoxyphenyl)-7H-1,2,3-triazolo(4,5-d)pyrimidin-7-one]?
insulin-mediated capillary recruitment (hindleg 1-MX metabolism) (anaesthetised rats; infused with sub-maximal physiologic dose of insulin, vs insulin alone, FIG. 5a): significantly (P<0.05) enhanced; insulin-mediated glucose appearance (Ra) (anaesthetised rats; [4]): significantly (P<0.05) enhanced; insulin-mediated glucose disposal (Rd) (anaesthetised rats; [4]): significantly (P<0.05) enhanced
